Literature values, collected in patent US20250049666A1, “LIQUID COMPOSITION HAVING ENHANCED ANTIMICROBIAL ACTIVITY” (Conopco Inc., d/b/a UNILEVER, priority 2021, published 2025).

Compound | pKa | log P (octanol/water)
CCCCCCCC(=O)O [Caprylic acid] | 4.72 | –
Capryloyl salicylic acid | acid (pKa = 3.83, log | P = 4.83)
